Results on 13 compounds are retold here after patent US20140296216A1, “PYRIMIDO[4,5-D]PYRIMIDINYL COMPOUNDS, PHARMACEUTICAL COMPOSITIONS AND USES THEREOF” (GUANGZHOU INSTITUTE OF BIOMEDICINE AND HEALTH, CHINESE …, priority 2011, published 2014).

One assay concerns the target EGFRL861Q (Homo sapiens, UniProt P00533, L861Q). As to the kind of experiment: In vitro enzymatic activity assay (Z'-LYTE), EGFR L861Q. It is filed as biochemical. As to conditions: Z'-LYTE FRET peptide assay; read-out: EGFRL861Q kinase activity (IC50). From the text: (§1) In vitro enzymatic activity assay: using Z′-LYTE™ technology (detect fluorescence, coupled-enzyme format, based on the differential sensitivity of phosphorylated and non-phosphorylated peptides to proteolytic cleavage), based on FRET, using Z′ LYTE™ FRET peptide substrate, detect the activity of compounds against enzymatic. […] After one hour, site specific protease which can recognize and cleaves non-phosphorylated FRET-peptide. After another hour, using an excitation wavelength of 400 nm excites, then detect the […] at 445 nm and 520 nm.

Another assay concerns the target T1, EGFR T790M kinase (Homo sapiens, UniProt P00533, T790M).
T1 construct: purchased invitrogen PV4803
As to the kind of experiment: In vitro enzymatic activity assay (Z'-LYTE), EGFR T790M. Conditions: Z'-LYTE FRET peptide assay; read-out: EGFRT790M kinase activity (IC50). Type of assay: biochemical.
From the text: as §1

The next assay deals with EGFRL858R (Homo sapiens, UniProt P00533, L858R). As to the kind of experiment: In vitro enzymatic activity assay (Z'-LYTE), EGFR L858R. Type of assay: biochemical. As to conditions: Z'-LYTE FRET peptide assay; read-out: EGFRL858R kinase activity (IC50).
EGFRL858R, sequence (P00533 25-1210 L858R): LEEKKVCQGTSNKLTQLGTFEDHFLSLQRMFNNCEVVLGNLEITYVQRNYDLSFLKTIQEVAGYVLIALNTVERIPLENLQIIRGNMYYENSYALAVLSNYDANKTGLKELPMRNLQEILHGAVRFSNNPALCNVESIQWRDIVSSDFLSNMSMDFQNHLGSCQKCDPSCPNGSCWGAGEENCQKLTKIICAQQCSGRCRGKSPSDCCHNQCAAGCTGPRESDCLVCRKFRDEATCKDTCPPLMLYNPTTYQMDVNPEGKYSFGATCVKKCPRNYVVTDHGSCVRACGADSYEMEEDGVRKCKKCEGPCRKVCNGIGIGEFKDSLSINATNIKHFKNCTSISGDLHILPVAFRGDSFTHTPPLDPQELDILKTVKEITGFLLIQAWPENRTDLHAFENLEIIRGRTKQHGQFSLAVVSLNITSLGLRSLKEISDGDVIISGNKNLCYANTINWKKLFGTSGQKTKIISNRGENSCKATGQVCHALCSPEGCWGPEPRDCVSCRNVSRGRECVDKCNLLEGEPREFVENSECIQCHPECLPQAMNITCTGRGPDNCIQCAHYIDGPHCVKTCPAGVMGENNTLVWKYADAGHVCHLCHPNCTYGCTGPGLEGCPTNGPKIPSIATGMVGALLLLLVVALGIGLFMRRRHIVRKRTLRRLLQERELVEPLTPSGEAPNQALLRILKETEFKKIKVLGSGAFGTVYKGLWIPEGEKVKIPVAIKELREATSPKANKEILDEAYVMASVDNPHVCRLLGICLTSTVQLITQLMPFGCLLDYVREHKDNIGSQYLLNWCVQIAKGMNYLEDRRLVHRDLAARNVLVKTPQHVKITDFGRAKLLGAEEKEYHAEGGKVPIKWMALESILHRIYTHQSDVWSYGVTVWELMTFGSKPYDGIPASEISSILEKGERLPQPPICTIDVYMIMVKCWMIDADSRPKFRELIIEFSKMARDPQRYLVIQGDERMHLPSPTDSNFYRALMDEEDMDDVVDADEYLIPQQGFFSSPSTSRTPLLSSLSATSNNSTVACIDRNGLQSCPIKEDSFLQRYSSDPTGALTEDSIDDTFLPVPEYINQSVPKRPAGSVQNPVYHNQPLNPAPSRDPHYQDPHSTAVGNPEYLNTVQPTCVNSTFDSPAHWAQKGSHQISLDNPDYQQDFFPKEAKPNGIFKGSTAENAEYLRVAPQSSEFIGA
From the text: as §1

For a further assay, the target named is EGFRL858R + T790M (Homo sapiens, UniProt P00533, L858R/T790M). Kind of assay: In vitro enzymatic activity assay (Z'-LYTE), EGFR L858R + T790M. It is filed as biochemical. As to conditions: Z'-LYTE FRET peptide assay; read-out: EGFRL858R + T790M kinase activity (IC50).
EGFRL858R + T790M, sequence (P00533 25-1210 T790M/L858R): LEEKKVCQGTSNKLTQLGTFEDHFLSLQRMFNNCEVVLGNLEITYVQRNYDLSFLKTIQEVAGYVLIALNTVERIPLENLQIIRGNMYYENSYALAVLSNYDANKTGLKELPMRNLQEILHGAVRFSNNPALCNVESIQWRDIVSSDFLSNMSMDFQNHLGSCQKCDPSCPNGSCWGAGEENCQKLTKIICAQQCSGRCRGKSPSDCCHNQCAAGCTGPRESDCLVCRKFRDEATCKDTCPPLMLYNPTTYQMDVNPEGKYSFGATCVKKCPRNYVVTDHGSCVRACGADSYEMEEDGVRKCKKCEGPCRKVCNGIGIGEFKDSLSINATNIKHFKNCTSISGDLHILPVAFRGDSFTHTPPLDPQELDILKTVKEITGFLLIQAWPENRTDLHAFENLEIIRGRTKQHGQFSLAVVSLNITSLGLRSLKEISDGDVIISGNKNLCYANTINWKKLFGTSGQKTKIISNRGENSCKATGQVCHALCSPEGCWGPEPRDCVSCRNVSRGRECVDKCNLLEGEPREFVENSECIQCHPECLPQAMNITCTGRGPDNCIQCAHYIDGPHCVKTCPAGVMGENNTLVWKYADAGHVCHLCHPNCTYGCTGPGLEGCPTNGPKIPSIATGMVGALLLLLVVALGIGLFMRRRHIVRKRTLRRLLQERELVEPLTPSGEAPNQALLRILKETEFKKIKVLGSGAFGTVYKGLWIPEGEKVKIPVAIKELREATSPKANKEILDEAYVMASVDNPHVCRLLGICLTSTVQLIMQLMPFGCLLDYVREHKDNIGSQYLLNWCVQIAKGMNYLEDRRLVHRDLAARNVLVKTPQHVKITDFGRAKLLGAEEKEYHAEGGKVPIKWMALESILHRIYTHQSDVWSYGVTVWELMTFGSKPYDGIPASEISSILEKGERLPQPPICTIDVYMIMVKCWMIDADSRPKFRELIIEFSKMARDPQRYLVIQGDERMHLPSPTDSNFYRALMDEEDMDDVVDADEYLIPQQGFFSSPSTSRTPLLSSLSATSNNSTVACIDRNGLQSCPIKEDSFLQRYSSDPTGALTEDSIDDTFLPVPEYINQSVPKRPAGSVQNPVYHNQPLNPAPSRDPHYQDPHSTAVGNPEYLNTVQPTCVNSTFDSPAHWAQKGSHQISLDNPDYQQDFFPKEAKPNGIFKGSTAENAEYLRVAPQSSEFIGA
From the text: as §1

A further assay deals with EGFRWT (Homo sapiens, UniProt P00533). As to the kind of experiment: In vitro enzymatic activity assay (Z'-LYTE), wild type EGFR. It is filed as biochemical. As to conditions: Z'-LYTE FRET peptide assay; read-out: EGFRWT kinase activity (IC50).
EGFRWT, sequence (P00533 25-1210): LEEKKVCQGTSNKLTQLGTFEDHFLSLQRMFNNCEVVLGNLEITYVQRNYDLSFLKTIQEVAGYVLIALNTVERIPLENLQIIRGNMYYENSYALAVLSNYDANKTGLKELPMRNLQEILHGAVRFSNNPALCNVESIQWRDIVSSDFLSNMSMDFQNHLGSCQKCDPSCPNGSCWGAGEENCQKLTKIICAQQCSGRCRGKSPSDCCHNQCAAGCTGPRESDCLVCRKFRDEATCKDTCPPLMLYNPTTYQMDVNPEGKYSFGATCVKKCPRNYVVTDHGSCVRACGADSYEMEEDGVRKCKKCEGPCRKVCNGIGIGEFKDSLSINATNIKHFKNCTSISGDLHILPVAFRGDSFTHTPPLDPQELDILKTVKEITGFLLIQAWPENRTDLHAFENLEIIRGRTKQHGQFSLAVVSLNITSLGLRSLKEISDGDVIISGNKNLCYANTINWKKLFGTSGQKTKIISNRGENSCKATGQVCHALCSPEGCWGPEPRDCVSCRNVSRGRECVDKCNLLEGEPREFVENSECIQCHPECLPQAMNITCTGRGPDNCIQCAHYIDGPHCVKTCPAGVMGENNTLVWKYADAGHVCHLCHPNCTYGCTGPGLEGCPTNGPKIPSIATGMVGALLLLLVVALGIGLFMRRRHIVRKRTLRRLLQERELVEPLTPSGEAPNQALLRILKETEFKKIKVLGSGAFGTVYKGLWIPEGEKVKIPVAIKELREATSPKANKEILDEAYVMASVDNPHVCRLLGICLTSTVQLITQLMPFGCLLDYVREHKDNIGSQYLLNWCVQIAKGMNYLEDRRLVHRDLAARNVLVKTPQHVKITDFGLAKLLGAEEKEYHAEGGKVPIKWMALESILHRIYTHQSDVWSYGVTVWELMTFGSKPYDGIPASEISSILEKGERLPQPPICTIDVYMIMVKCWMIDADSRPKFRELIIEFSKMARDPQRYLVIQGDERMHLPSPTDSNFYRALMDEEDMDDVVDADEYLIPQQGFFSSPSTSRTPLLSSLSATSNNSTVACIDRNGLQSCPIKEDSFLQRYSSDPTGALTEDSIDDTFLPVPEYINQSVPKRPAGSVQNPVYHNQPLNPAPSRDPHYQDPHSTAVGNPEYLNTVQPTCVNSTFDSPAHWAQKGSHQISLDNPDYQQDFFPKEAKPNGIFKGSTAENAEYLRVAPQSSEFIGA
From the text: as §1

The test system of assay [1] is H1975 (lung cancer cells, EGFR L858R&T790M). As to the kind of experiment: Cell proliferation by MTT, H1975. Type of assay: cell-based. Conditions: Homo sapiens, NCI-H1975, read-out: H1975 50% inhibitory concentration (IC50), 72 h.

SMILES strings stand for the structures. A value given as a limit tells only on which side of the number the result lay.

T1 sequence (P00533 25-1210 T790M): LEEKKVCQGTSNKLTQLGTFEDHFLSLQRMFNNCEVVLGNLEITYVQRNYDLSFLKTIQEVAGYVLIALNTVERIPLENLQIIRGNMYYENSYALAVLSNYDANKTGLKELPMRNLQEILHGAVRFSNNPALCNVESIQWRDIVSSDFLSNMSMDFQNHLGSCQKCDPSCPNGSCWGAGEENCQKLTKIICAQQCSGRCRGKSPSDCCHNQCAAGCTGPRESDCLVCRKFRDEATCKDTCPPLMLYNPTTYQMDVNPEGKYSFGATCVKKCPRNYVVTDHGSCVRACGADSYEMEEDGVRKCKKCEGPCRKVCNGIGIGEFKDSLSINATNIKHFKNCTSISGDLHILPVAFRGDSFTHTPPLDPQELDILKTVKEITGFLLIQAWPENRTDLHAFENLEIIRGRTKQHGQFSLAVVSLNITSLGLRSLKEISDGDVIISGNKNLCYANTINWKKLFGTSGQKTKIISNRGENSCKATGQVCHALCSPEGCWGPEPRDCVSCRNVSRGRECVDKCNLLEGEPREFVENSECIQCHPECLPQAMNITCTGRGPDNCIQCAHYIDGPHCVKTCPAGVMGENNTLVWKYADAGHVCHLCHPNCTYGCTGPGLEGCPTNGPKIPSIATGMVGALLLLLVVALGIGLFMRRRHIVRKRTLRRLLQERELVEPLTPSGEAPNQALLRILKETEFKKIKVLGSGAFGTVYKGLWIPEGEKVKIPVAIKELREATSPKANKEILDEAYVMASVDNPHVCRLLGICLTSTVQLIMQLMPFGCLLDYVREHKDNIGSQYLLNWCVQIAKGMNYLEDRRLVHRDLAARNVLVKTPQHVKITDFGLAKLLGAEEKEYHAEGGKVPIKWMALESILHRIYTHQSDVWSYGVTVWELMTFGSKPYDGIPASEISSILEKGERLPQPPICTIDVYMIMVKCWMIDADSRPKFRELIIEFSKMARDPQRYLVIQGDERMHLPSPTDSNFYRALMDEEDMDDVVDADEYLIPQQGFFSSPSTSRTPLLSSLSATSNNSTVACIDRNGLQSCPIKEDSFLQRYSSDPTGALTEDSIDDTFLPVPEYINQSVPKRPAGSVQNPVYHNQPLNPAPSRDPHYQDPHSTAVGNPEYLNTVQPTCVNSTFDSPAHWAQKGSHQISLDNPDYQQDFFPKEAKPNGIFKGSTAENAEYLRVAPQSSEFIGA

With `C=CC(=O)Nc1cccc(N2C(=O)N(c3ccc(OCc4ccccc4)cc3)Cc3cnc(Nc4ccc(N5CCN(C)CC5)cc4OC)nc32)c1` [C-EGF32, N-(3-(3-(4-(benzyloxy)phenyl)-7-(2-methoxy-4-(4-methylpiperazin-1-yl)phenylamino)-2-oxo-3,4-dihydropyrimido[4,5-d]pyrimidin-1(2H)-yl)phenyl)acrylamide], the IC50 on EGFRL861Q, at EGFR T790M kinase, on EGFRL858R, at EGFRL858R + T790M and at EGFRWT was ≤ 10 nM throughout.

As for `C=CC(=O)Nc1cccc(N2C(=O)N(c3ccc(F)c(Cl)c3)Cc3cnc(Nc4ccc(N5CCN(C)CC5)cc4OC)nc32)c1` [C-EGF38, N-(3-(3-(3-chloro-4-fluorophenyl)-7-(2-methoxy-4-(4-methylpiperazin-1-yl)phenylamino)-2-oxo-3,4-dihydropyrimido[4,5-d]pyrimidin-1(2H)-yl)phenyl)acrylamide], the IC50 at EGFRL861Q, on EGFR T790M kinase, at EGFRL858R, on EGFRL858R + T790M and on EGFRWT was ≤ 10 nM throughout.

For `C=CC(=O)Nc1cccc(N2C(=O)N(C)Cc3cnc(Nc4ccc(N5CC[C@@H](N(C)C)C5)cc4OC)nc32)c1` [C-EGF15, (R)—N-(3-(7-(4-(3-(dimethylamino)pyrrolidin-1-yl)-2-methoxyphenylamino)-3-methyl-2-oxo-3,4-dihydropyrimido[4,5-d]pyrimidin-1(2H)-yl)phenyl)acrylamide], the IC50 at EGFRL861Q is ≤ 10 nM; at EGFR T790M kinase, 10 to 100 nM; in assay [1], 449 nM; at EGFRL858R it was ≤ 10 nM; at EGFRL858R + T790M it was ≤ 10 nM; at EGFRWT, 10 to 100 nM.

Turning to `C=CC(=O)Nc1cccc(N2C(=O)N(c3ccccc3)Cc3cnc(Nc4ccc(N5CCN(C)CC5)cc4OC)nc32)c1` [C-EGF27, N-(3-(7-(2-methoxy-4-(4-methylpiperazin-1-yl)phenylamino)-2-oxo-3-phenyl-3,4-dihydropyrimido[4,5-d]pyrimidin-1(2H)-yl)phenyl)acrylamide], the IC50 on EGFRL861Q, at EGFR T790M kinase, on EGFRL858R, at EGFRL858R + T790M and at EGFRWT was ≤ 10 nM in each case.

Regarding `C=CC(=O)Nc1cccc(N2C(=O)N(c3ccccc3C)Cc3cnc(Nc4ccc(N5CCN(C)CC5)cc4OC)nc32)c1` [C-EGF39, N-(3-(7-(2-methoxy-4-(4-methylpiperazin-1-yl)phenylamino)-2-oxo-3-o-tolyl-3,4-dihydropyrimido[4,5-d]pyrimidin-1(2H)-yl)phenyl)acrylamide], the IC50 on EGFRL861Q, on EGFR T790M kinase, at EGFRL858R, on EGFRL858R + T790M and on EGFRWT was ≤ 10 nM each time.

Consider `C=CC(=O)Nc1cccc(N2C(=O)N(c3cccc(Cl)c3)Cc3cnc(Nc4ccc(N5CCN(C)CC5)cc4OC)nc32)c1` [C-EGF35, N-(3-(3-(3-chlorophenyl)-7-(2-methoxy-4-(4-methylpiperazin-1-yl)phenylamino)-2-oxo-3,4-dihydropyrimido[4,5-d]pyrimidin-1(2H)-yl)phenyl)acrylamide], for which the IC50 on EGFRL861Q, at EGFR T790M kinase, at EGFRL858R, at EGFRL858R + T790M and at EGFRWT was ≤ 10 nM each time.

Take `C=CC(=O)Nc1cccc(N2C(=O)N(c3cccc([N+](=O)[O-])c3)Cc3cnc(Nc4ccc(N5CCN(C)CC5)cc4OC)nc32)c1` [C-EGF37, N-(3-(7-(2-methoxy-4-(4-methylpiperazin-1-yl)phenylamino)-3-(3-nitrophenyl)-2-oxo-3,4-dihydropyrimido[4,5-d]pyrimidin-1(2H)-yl)phenyl)acrylamide]: the IC50 on EGFRL861Q is ≤ 10 nM; at EGFR T790M kinase, 10 to 100 nM; on EGFRL858R, ≤ 10 nM; at EGFRL858R + T790M, 10 to 100 nM; on EGFRWT, ≤ 10 nM.

In the case of `C=CS(=O)(=O)Nc1cccc(N2C(=O)N(C)Cc3cnc(Nc4ccc(N5CCN(C)CC5)cc4OC)nc32)c1` [C-EGF40, N-(3-(7-(2-methoxy-4-(4-methylpiperazin-1-yl)phenylamino)-3-methyl-2-oxo-3,4-dihydropyrimido[4,5-d]pyrimidin-1(2H)-yl)phenyl)ethenesulfonamide], the IC50 on EGFRL861Q is ≤ 10 nM; on EGFR T790M kinase, 10 to 100 nM; at EGFRL858R, ≤ 10 nM; on EGFRL858R + T790M it was 10 to 100 nM; at EGFRWT it was ≤ 10 nM.

Consider `C=CC(=O)Nc1cccc(N2C(=O)N(c3ccc(-c4ccccc4)cc3)Cc3cnc(Nc4ccc(N5CCN(C)CC5)cc4OC)nc32)c1` [C-EGF30, N-(3-(3-(biphenyl-4-yl)-7-(2-methoxy-4-(4-methylpiperazin-1-yl)phenylamino)-2-oxo-3,4-dihydropyrimido[4,5-d]pyrimidin-1(2H)-yl)phenyl)acrylamide], for which the IC50 at EGFRL861Q, at EGFR T790M kinase, at EGFRL858R, on EGFRL858R + T790M and on EGFRWT was ≤ 10 nM in each case.

Consider `C=CC(=O)Nc1cccc(N2C(=O)N(c3cccc(C#N)c3)Cc3cnc(Nc4ccc(N5CCN(C)CC5)cc4OC)nc32)c1` [C-EGF36, N-(3-(3-(3-cyanophenyl)-7-(2-methoxy-4-(4-methylpiperazin-1-yl)phenylamino)-2-oxo-3,4-dihydropyrimido[4,5-d]pyrimidin-1(2H)-yl)phenyl)acrylamide], for which the IC50 on EGFRL861Q, on EGFR T790M kinase, on EGFRL858R, on EGFRL858R + T790M and at EGFRWT was ≤ 10 nM each time.

As to `C=CC(=O)Nc1ccc(F)c(N2C(=O)N(Cc3ccccc3)Cc3cnc(Nc4ccc(N5CCN(C)CC5)cc4OC)nc32)c1` [C-EGF41, N-(3-(3-benzyl-7-(2-methoxy-4-(4-methylpiperazin-1-yl)phenylamino)-2-oxo-3,4-dihydropyrimido[4,5-d]pyrimidin-1(2H)-yl)-4-fluorophenyl)acrylamide], the IC50 at EGFRL861Q, at EGFR T790M kinase, at EGFRL858R, at EGFRL858R + T790M and on EGFRWT was ≤ 10 nM each time.

On to `C=CC(=O)Nc1cccc(N2C(=O)N(c3ccc(Oc4ccccc4)cc3)Cc3cnc(Nc4ccc(N5CCN(C)CC5)cc4OC)nc32)c1` [C-EGF31, N-(3-(7-(2-methoxy-4-(4-methylpiperazin-1-yl)phenylamino)-2-oxo-3-(4-phenoxyphenyl)-3,4-dihydropyrimido[4,5-d]pyrimidin-1(2H)-yl)phenyl)acrylamide], for which the IC50 at EGFRL861Q, at EGFR T790M kinase, on EGFRL858R, at EGFRL858R + T790M and at EGFRWT was ≤ 10 nM throughout.

As to `C=CC(=O)Nc1cccc(N2C(=O)N(Cc3ccccc3)Cc3cnc(Nc4ccc(N5CCN(C)CC5)cc4OC)nc32)c1` [C-EGF29, N-(3-(3-benzyl-7-(2-methoxy-4-(4-methylpiperazin-1-yl)phenylamino)-2-oxo-3,4-dihydropyrimido[4,5-d]pyrimidin-1(2H)-yl)phenyl)acrylamide], the IC50 at EGFRL861Q, at EGFR T790M kinase, at EGFRL858R, on EGFRL858R + T790M and at EGFRWT was ≤ 10 nM each time.
